In US12570666B2, “Furoindazole derivatives” (Bayer Aktiengesellschaft, priority 2019, dated 2026):

Target: T1, human GPR84 receptor (Homo sapiens, UniProt Q9NQS5)
T1 construct: frozen aliquots prepared by acCELLerate; host or cells: CHO-K1
Experiment: cAMP HTRF assay for identification of cellular GPR84 antagonists
Type: cell-based
Details: CHO-K1 cells stably expressing human GPR84; Forskolin + agonist 6-OAU (EC80); average or median values
Outline: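 Forskolin-stimulated CHO-K1 cells stably expressing human GPR84, agonist-suppressed cAMP measured by HTRF (665/620 ratio) after lysis. Compounds at 11 concentrations, 20 μM to 0.07 nM, duplicate; normalized to DMSO and no-agonist controls; IC50 by 4-parameter fit.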

T1 sequence (Q9NQS5 whole entry): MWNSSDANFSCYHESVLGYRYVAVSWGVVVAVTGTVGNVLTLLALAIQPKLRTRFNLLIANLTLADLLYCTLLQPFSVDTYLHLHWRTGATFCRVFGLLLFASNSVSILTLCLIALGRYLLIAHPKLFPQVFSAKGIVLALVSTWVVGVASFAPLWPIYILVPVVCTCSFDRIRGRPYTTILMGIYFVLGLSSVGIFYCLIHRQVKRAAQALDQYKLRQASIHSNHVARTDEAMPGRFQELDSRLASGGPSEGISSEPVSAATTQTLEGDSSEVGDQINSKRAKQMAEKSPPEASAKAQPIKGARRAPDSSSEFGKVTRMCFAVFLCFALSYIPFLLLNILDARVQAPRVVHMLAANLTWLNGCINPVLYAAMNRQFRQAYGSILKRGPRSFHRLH

Row | Compound | IC50 [nM]
1 | Cc1c(C(=O)NC[C@@H]2CCCO2)oc2c1-c1nn(C[C@@H]3COCCO3)cc1CC2 [Example 87, 2-[(2R)-1,4-dioxan-2-ylmethyl]-8-methyl-N-[(2S)-tetrahydrofuran-2-ylmethyl]-4,5-dihydro-2H-furo[2,3-g]indazole-7-carboxamide] | 200
2 | Cc1c(C(=O)NCC2COCC(C)(C)O2)oc2c1-c1nn(C[C@H]3COCCO3)cc1C1(CC1)C2 (mixture of isomers) [Example 196] | 182
3 | Cc1c(C(=O)NC[C@H]2COCCO2)oc2c1-c1nn(C[C@H]3COCCO3)cc1C1(CCC1)C2 [Example 144, N,2′-bis[(2S)-1,4-dioxan-2-ylmethyl]-8′-methyl-2′,5′-dihydrospiro[cyclobutane-1,4′-furo[2,3-g]indazole]-7′-carboxamide] | 7390
4 | Cc1c(C(=O)NC[C@@H]2CCCO2)oc2c1-c1nn(Cc3cncnc3)cc1CC2 [Example 85, 8-methyl-2-(pyrimidin-5-ylmethyl)-N-[(2S)-tetrahydrofuran-2-ylmethyl]-4,5-dihydro-2H-furo[2,3-g]indazole-7-carboxamide] | 260
5 | Cc1ccnc(CCNC(=O)c2oc3c(c2C(F)(F)F)-c2nn(C[C@H]4COCCO4)cc2CC3)c1 [Example 231, 2-[(2S)-1,4-Dioxan-2-ylmethyl]-N-[2-(4-methylpyridin-2-yl)ethyl]-8-(trifluormethyl)-4,5-dihydro-2H-furo[2,3-g]indazol-7-carboxamide] | 1390
6 | Cc1c(C(=O)NCc2ccn(C)n2)oc2c1-c1nn(Cc3ccccn3)cc1CC2 [Example 34, 8-methyl-N-[(1-methyl-1H-pyrazol-3-yl)methyl]-2-(pyridin-2-ylmethyl)-4,5-dihydro-2H-furo[2,3-g]indazole-7-carboxamide] | 280
7 | Cc1c(C(=O)NCc2ncco2)oc2c1-c1nn(C[C@H]3COCCO3)cc1C1(CC1)C2 [Example 128, 2′-[(2S)-1,4-dioxan-2-ylmethyl]-8′-methyl-N-(1,3-oxazol-2-ylmethyl)-2′,5′-dihydrospiro[cyclopropane-1,4′-furo[2,3-g]indazole]-7′-carboxamide] | 110
8 | Cc1c(C(=O)NCC2CCC(C)O2)oc2c1-c1nn(Cc3ccccn3)cc1CC2 (mixture of isomers) [Example 176] | 118
9 | Cc1c(C(=O)NCc2ccn(C)n2)oc2c1-c1nn(Cc3ccccn3)cc1C1(CC1)C2 [Example 123, 8′-methyl-N-[(1-methyl-1H-pyrazol-3-yl)methyl]-2′-(pyridin-2-ylmethyl)-2′,5′-dihydrospiro[cyclopropane-1,4′-furo[2,3-g]indazole]-7′-carboxamide] | 120
10 | Cc1c(C(=O)NC[C@H]2CCOC2)oc2c1-c1nn(Cc3ccccn3)cc1CC2 [Example 33-2, 8-methyl-2-(pyridin-2-ylmethyl)-N-[(3R)-tetrahydrofuran-3-ylmethyl]-4,5-dihydro-2H-furo[2,3-g]indazole-7-carboxamide] | 2890
11 | Cc1c(C(=O)NCC2CCC(=O)O2)oc2c1-c1nn(Cc3ccccn3)cc1CC2 (racemic) [Example 39, 8-methyl-N-{[(2R/S)-5-oxotetrahydrofuran-2-yl]methyl}-2-(pyridin-2-ylmethyl)-4,5-dihydro-2H-furo[2,3-g]indazole-7-carboxamide] | 960
12 | Cc1c(C(=O)NCc2cc[nH]n2)oc2c1-c1nn(Cc3ccccn3)cc1CC2 [Example 22, 8-methyl-N-(1H-pyrazol-3-ylmethyl)-2-(pyridin-2-ylmethyl)-4,5-dihydro-2H-furo[2,3-g]indazole-7-carboxamide] | 340
13 | Cc1c(C(=O)NCC2CCC(=O)O2)oc2c1-c1nn(Cc3ccccn3)cc1CC2 (single isomer, unassigned) [Example 39-2] | 7050
14 | Cc1ncccc1Cn1cc2c(n1)-c1c(oc(C(=O)NC[C@@H]3COCCO3)c1C)CC2 [Example 74, N-[(2R)-1,4-dioxan-2-ylmethyl]-8-methyl-2-[(2-methylpyridin-3-yl)methyl]-4,5-dihydro-2H-furo[2,3-g]indazole-7-carboxamide] | 160
15 | Cc1cc(Cn2cc3c(n2)-c2c(oc(C(=O)NC[C@@H]4CCCO4)c2C)CC3)cc(C)n1 [Example 81, 2-[(2,6-dimethylpyridin-4-yl)methyl]-8-methyl-N-[(2S)-tetrahydrofuran-2-ylmethyl]-4,5-dihydro-2H-furo[2,3-g]indazole-7-carboxamide] | 380
16 | Cc1c(C(=O)NC[C@@H]2COCCO2)oc2c1-c1nn(Cc3ccc(C(=O)NC[C@@H]4COCCO4)nc3)cc1CC2 [Example 147, N-[(2R)-1,4-dioxan-2-ylmethyl]-2-[(6-{[(2R)-1,4-dioxan-2-ylmethyl]carbamoyl}pyridin-3-yl)methyl]-8-methyl-4,5-dihydro-2H-furo[2,3-g]indazole-7-carboxamide] | 130

Next, values leading:

Row | IC50 [nM] | Compound
17 | 46 | CC1Cc2oc(C(=O)NC[C@@H]3COCCO3)c(C(F)(F)F)c2-c2nn(C[C@H]3COCCO3)cc21 (single isomer, unassigned) [Example 254-2, (4R or 4S)-N-{[(2R)-1,4-dioxan-2-yl]methyl}-2-{[(2S)-1,4-dioxan-2-yl]methyl}-4-methyl-8-(trifluoromethyl)-4,5-dihydro-2H-furo[2,3-g]indazole-7-carboxamide]
18 | 54 | O=C(NC[C@H]1CC(F)(F)CO1)c1oc2c(c1C(F)(F)F)-c1nn(C[C@H]3COCCO3)cc1CC2 (single isomer, unassigned) [Example 222-2, N-{[(2S or 2R)-4,4-difluorooxolan-2-yl]methyl}-2-{[(2S)-1,4-dioxan-2-yl]methyl}-8-(trifluoromethyl)-4,5-dihydro-2H-furo[2,3-g]indazole-7-carboxamide]
19 | 25 | C[C@@H]1Cc2oc(C(=O)NCc3ccn(C)n3)c(C(F)(F)F)c2-c2nn(C[C@H]3COCCO3)cc21 (single isomer, unassigned) [Example 257, (4R or 4S)-2-{[(2S)-1,4-dioxan-2-yl]methyl}-4-methyl-N-[(1-methyl-1H-pyrazol-3-yl)methyl]-8-(trifluoromethyl)-4,5-dihydro-2H-furo[2,3-g]indazole-7-carboxamide]
20 | 27 | O=C(NC[C@@H]1COCCO1)c1oc2c(c1C(F)(F)F)-c1nn(C[C@H]3COCCO3)cc1C1(CCC1)C2 [Example 269, N-[(2R)-1,4-dioxan-2-ylmethyl]-2′-[(2S)-1,4-dioxan-2-ylmethyl]-8′-(trifluormethyl)-2′,5′-dihydrospiro[cyclobutan-1,4′-furo[2,3-g]indazol]-7′-carboxamide]
21 | 28 | O=C(NC[C@@H]1CCCO1)c1oc2c(c1C1CC1)-c1nn(Cc3ccccn3)cc1CC2 [Example 119, 8-cyclopropyl-2-(pyridin-2-ylmethyl)-N-[(2S)-tetrahydrofuran-2-ylmethyl]-4,5-dihydro-2H-furo[2,3-g]indazole-7-carboxamide]
22 | 27 | O=C(NC[C@@H]1CCCO1)c1oc2c(c1C(F)(F)F)-c1nn(Cc3ccccn3)cc1CC2 [Example 115, 2-(pyridin-2-ylmethyl)-N-[(2S)-tetrahydrofuran-2-ylmethyl]-8-(trifluoromethyl)-4,5-dihydro-2H-furo[2,3-g]indazole-7-carboxamide]
23 | 110 | Cc1c(C(=O)NC[C@@H]2CCCO2)oc2c1-c1nn(CC3(F)CN(S(C)(=O)=O)C3)cc1CC2 [Example 166, 2-{[3-fluoro-1-(methylsulfonyl)azetidin-3-yl]methyl}-8-methyl-N-[(2S)-tetrahydrofuran-2-ylmethyl]-4,5-dihydro-2H-furo[2,3-g]indazole-7-carboxamide]
24 | 28 | Cc1ccc(Cn2cc3c(n2)-c2c(oc(C(=O)NC[C@@H]4CCCO4)c2C)CC3)nc1 [Example 64, 8-methyl-2-[(5-methylpyridin-2-yl)methyl]-N-[(2S)-tetrahydrofuran-2-ylmethyl]-4,5-dihydro-2H-furo[2,3-g]indazole-7-carboxamide]
25 | 13 | C[C@@H]1Cc2oc(C(=O)NC[C@@H]3COCCO3)c(C(F)(F)F)c2-c2nn(CC3CCOCC3)cc21 (single isomer, unassigned) [Example 263, (4R or 4S)-N-{[(2R)-1,4-dioxan-2-yl]methyl}-4-methyl-2-[(oxan-4-yl)methyl]-8-(trifluoromethyl)-4,5-dihydro-2H-furo[2,3-g]indazole-7-carboxamide]
26 | 92 | Cc1c(C(=O)NCC2CC3(CC3)CO2)oc2c1-c1nn(Cc3ccccn3)cc1CC2 (racemic) [Example 178]
27 | 21 | CC1COC(CNC(=O)c2oc3c(c2C(F)(F)F)-c2nn(C[C@H]4COCCO4)cc2[C@H](C)C3)C1 (single isomer, unassigned) [Example 313, 2,5-anhydro-1,3,4-trideoxy-1-{[(4R or 4S)-2-{[(2S)-1,4-dioxan-2-yl]methyl}-4-methyl-8-(trifluoromethyl)-4,5-dihydro-2H-furo[2,3-g]indazole-7-carbonyl]amino}-4-methylpentitol]
28 | 40 | Cc1c(C(=O)NC[C@@H]2CCCO2)oc2c1-c1nn(C[C@H]3COCCO3)cc1CC2 [Example 89, 2-[(2S)-1,4-dioxan-2-ylmethyl]-8-methyl-N-[(2S)-tetrahydrofuran-2-ylmethyl]-4,5-dihydro-2H-furo[2,3-g]indazole-7-carboxamide]
29 | 26 | [2H]C([2H])(c1ccccc1)n1cc2c(n1)-c1c(oc(C(=O)NC[C@@H]3CCCO3)c1C)CC2 [Example 135, 8-methyl-2-[phenyl(^2H2)methyl]-N-[(2S)-tetrahydrofuran-2-ylmethyl]-4,5-dihydro-2H-furo[2,3-g]indazole-7-carboxamide]
30 | 58 | Cc1cc(Cn2cc3c(n2)-c2c(oc(C(=O)NC[C@@H]4CCCO4)c2C)CC3)ccn1 [Example 79, 8-methyl-2-[(2-methylpyridin-4-yl)methyl]-N-[(2S)-tetrahydrofuran-2-ylmethyl]-4,5-dihydro-2H-furo[2,3-g]indazole-7-carboxamide]
